The record followed here is PubChem BioAssay AID1259407 (Chemical Carcinogenesis Research Information System (CCRIS), 2018).

The structures appear in SMILES notation. Activity calls are given as the source filed them. How the calls were made is not given here.

This data set concerns CCRIS mutagenicity, Ames/micronucleus/aberration tests. Put plainly: CCRIS mutagenicity studies.
Setting [1] is: End Point: IN VITRO CHROMOSOMAL ABERRATIONS, Test System: CHINESE HAMSTER OVARY CELLS, Metabolic Activation: NONE.
Setting [2] is: End Point: IN VITRO CHROMOSOMAL ABERRATIONS, Test System: CHINESE HAMSTER OVARY CELLS, Metabolic Activation: RAT, LIVER, S-9, AROCLOR 1254.

For `O=C1NC(=O)C(c2ccccc2)(c2ccccc2)N1`, the mutagenic call is, setting by setting: under setting [1], “inactive; negative”; under setting [2], “inactive; negative”; (End Point: IN VIVO MICRONUCLEUS, Test System: BONE MARROW POLYCHROMATIC ERYTHROCYTES, Species: MOUSE, Strain/Sex: CD-1/MALE, FEMALE, Route: IP) “inactive; negative”; (End Point: IN VIVO MICRONUCLEUS, Test System: FETAL LIVER POLYCHROMATIC ERYTHROCYTES (MALES AND FEMALES), Species: MOUSE, Strain/Sex: FEMALE (PREGNANT), Route: IP) “inactive; negative”; (Test System: AMES SALMONELLA TYPHIMURIUM, Strain/Indicator: TA97, Metabolic Activation: NONE, Method: STANDARD PLATE) “inactive; negative”; (Test System: AMES SALMONELLA TYPHIMURIUM, Strain/Indicator: TA97, Metabolic Activation: RAT, LIVER, S-9, 3-METHYLCHOLANTHRENE, Method: PREINCUBATION (10, 20 OR 30 MIN)) “inactive; negative”. Further, the mutagenic call reads like this: (Test System: AMES SALMONELLA TYPHIMURIUM, Strain/Indicator: TA97, Metabolic Activation: RAT, LIVER, S-9, AROCLOR 1254 (50 OR 100 UG), Method: STANDARD PLATE) “inactive; negative”; (Test System: AMES SALMONELLA TYPHIMURIUM, Strain/Indicator: TA97, Metabolic Activation: RAT, LIVER, S-9, AROCLOR 1254, Method: PREINCUBATION (10, 20 OR 30 MIN)) “inactive; negative”; (Test System: AMES SALMONELLA TYPHIMURIUM, Strain/Indicator: TA97, Metabolic Activation: RAT, LIVER, S-9, AROCLOR 1254, Method: STANDARD PLATE) “inactive; negative”; (Test System: AMES SALMONELLA TYPHIMURIUM, Strain/Indicator: TA97, Metabolic Activation: RAT, LIVER, S-9, PHENOBARBITONE, Method: PREINCUBATION (10, 20 OR 30 MIN)) “inactive; negative”; (Test System: AMES SALMONELLA TYPHIMURIUM, Strain/Indicator: TA98, Metabolic Activation: HAMSTER, LIVER, S-9, AROCLOR 1254 (10%), Method: PREINCUBATION) “inactive; negative”; (Test System: AMES SALMONELLA TYPHIMURIUM, Strain/Indicator: TA98, Metabolic Activation: NONE, Method: PREINCUBATION) “inactive; negative”. Also, the mutagenic call is “inactive; negative” (Test System: AMES SALMONELLA TYPHIMURIUM, Strain/Indicator: TA98, Metabolic Activation: NONE, Method: STANDARD PLATE); “inactive; negative” (Test System: AMES SALMONELLA TYPHIMURIUM, Strain/Indicator: TA98, Metabolic Activation: RAT, LIVER, S-9, 3-METHYLCHOLANTHRENE, Method: STANDARD PLATE); “inactive; negative” (Test System: AMES SALMONELLA TYPHIMURIUM, Strain/Indicator: TA98, Metabolic Activation: RAT, LIVER, S-9, AROCLOR 1254 (10%), Method: PREINCUBATION); “inactive; negative” (Test System: AMES SALMONELLA TYPHIMURIUM, Strain/Indicator: TA98, Metabolic Activation: RAT, LIVER, S-9, AROCLOR 1254 (50 OR 100 UG), Method: STANDARD PLATE); “inactive; negative” (Test System: AMES SALMONELLA TYPHIMURIUM, Strain/Indicator: TA98, Metabolic Activation: RAT, LIVER, S-9, AROCLOR 1254, Method: PREINCUBATION (10, 20 OR 30 MIN)); “inactive; negative” (Test System: AMES SALMONELLA TYPHIMURIUM, Strain/Indicator: TA98, Metabolic Activation: RAT, LIVER, S-9, AROCLOR 1254, Method: STANDARD PLATE). Also, the mutagenic call is, setting by setting: (Test System: AMES SALMONELLA TYPHIMURIUM, Strain/Indicator: TA98, Metabolic Activation: RAT, LIVER, S-9, PHENOBARBITONE, Method: STANDARD PLATE) “inactive; negative”; (Test System: AMES SALMONELLA TYPHIMURIUM, Strain/Indicator: TA100, Metabolic Activation: HAMSTER, LIVER, S-9, AROCLOR 1254 (10%), Method: PREINCUBATION) “inactive; negative”; (Test System: AMES SALMONELLA TYPHIMURIUM, Strain/Indicator: TA100, Metabolic Activation: NONE, Method: PREINCUBATION) “inactive; negative”; (Test System: AMES SALMONELLA TYPHIMURIUM, Strain/Indicator: TA100, Metabolic Activation: NONE, Method: STANDARD PLATE) “inactive; negative”; (Test System: AMES SALMONELLA TYPHIMURIUM, Strain/Indicator: TA100, Metabolic Activation: RAT, LIVER, S-9, AROCLOR 1254 (10%), Method: PREINCUBATION) “inactive; negative”; (Test System: AMES SALMONELLA TYPHIMURIUM, Strain/Indicator: TA100, Metabolic Activation: RAT, LIVER, S-9, AROCLOR 1254 (50 OR 100 UG), Method: STANDARD PLATE) “inactive; negative”. The mutagenic call is “inactive; negative” (Test System: AMES SALMONELLA TYPHIMURIUM, Strain/Indicator: TA100, Metabolic Activation: RAT, LIVER, S-9, AROCLOR 1254, Method: STANDARD PLATE); “inactive; negative” (Test System: AMES SALMONELLA TYPHIMURIUM, Strain/Indicator: TA1530, Metabolic Activation: NONE, Method: STANDARD PLATE); “inactive; negative” (Test System: AMES SALMONELLA TYPHIMURIUM, Strain/Indicator: TA1530, Metabolic Activation: RAT, LIVER, S-9, AROCLOR 1254 (50 OR 100 UG), Method: STANDARD PLATE); “inactive; negative” (Test System: AMES SALMONELLA TYPHIMURIUM, Strain/Indicator: TA1535, Metabolic Activation: HAMSTER, LIVER, S-9, AROCLOR 1254 (10%), Method: PREINCUBATION); “inactive; negative” (Test System: AMES SALMONELLA TYPHIMURIUM, Strain/Indicator: TA1535, Metabolic Activation: NONE, Method: PREINCUBATION); “inactive; negative” (Test System: AMES SALMONELLA TYPHIMURIUM, Strain/Indicator: TA1535, Metabolic Activation: RAT, LIVER, S-9, AROCLOR 1254 (10%), Method: PREINCUBATION). In addition, the mutagenic call reads like this: (Test System: AMES SALMONELLA TYPHIMURIUM, Strain/Indicator: TA1537, Metabolic Activation: HAMSTER, LIVER, S-9, AROCLOR 1254 (10%), Method: PREINCUBATION) “inactive; negative”; (Test System: AMES SALMONELLA TYPHIMURIUM, Strain/Indicator: TA1537, Metabolic Activation: NONE, Method: PREINCUBATION) “inactive; negative”; (Test System: AMES SALMONELLA TYPHIMURIUM, Strain/Indicator: TA1537, Metabolic Activation: NONE, Method: STANDARD PLATE) “inactive; negative”; (Test System: AMES SALMONELLA TYPHIMURIUM, Strain/Indicator: TA1537, Metabolic Activation: RAT, LIVER, S-9, AROCLOR 1254 (10%), Method: PREINCUBATION) “inactive; negative”; (Test System: AMES SALMONELLA TYPHIMURIUM, Strain/Indicator: TA1537, Metabolic Activation: RAT, LIVER, S-9, AROCLOR 1254 (50 OR 100 UG), Method: STANDARD PLATE) “inactive; negative”; (Test System: AMES SALMONELLA TYPHIMURIUM, Strain/Indicator: TA1538, Metabolic Activation: NONE, Method: STANDARD PLATE) “inactive; negative”. For the same molecule, the mutagenic call is, setting by setting: (Test System: AMES SALMONELLA TYPHIMURIUM, Strain/Indicator: TA1538, Metabolic Activation: RAT, LIVER, S-9, 3-METHYLCHOLANTHRENE, Method: STANDARD PLATE) “inactive; negative”; (Test System: AMES SALMONELLA TYPHIMURIUM, Strain/Indicator: TA1538, Metabolic Activation: RAT, LIVER, S-9, AROCLOR 1254 (50 OR 100 UG), Method: STANDARD PLATE) “inactive; negative”; (Test System: AMES SALMONELLA TYPHIMURIUM, Strain/Indicator: TA1538, Metabolic Activation: RAT, LIVER, S-9, AROCLOR 1254, Method: PREINCUBATION (10, 20 OR 30 MIN)) “inactive; negative”; (Test System: AMES SALMONELLA TYPHIMURIUM, Strain/Indicator: TA1538, Metabolic Activation: RAT, LIVER, S-9, AROCLOR 1254, Method: STANDARD PLATE) “inactive; negative”; (Test System: AMES SALMONELLA TYPHIMURIUM, Strain/Indicator: TA1538, Metabolic Activation: RAT, LIVER, S-9, PHENOBARBITONE, Method: STANDARD PLATE) “inactive; negative”; (Test System: CHINESE HAMSTER OVARY, Strain/Indicator: CHO-K1-BH4 (HGPRT)/6-THIOGUANINE, Metabolic Activation: NONE, Method: SUSPENSION/PLATE) “inactive; negative”. Further, the mutagenic call (Test System: CHINESE HAMSTER OVARY, Strain/Indicator: CHO-K1-BH4 (HGPRT)/6-THIOGUANINE, Metabolic Activation: S-9, Method: SUSPENSION/PLATE) is “inactive; negative”; the mutagenic call (Test System: MOUSE LYMPHOMA, Strain/Indicator: L5178Y (TK+/TK-), Metabolic Activation: NONE, Method: SUSPENSION/PLATE) was “inactive; negative”; the mutagenic call (Test System: MOUSE LYMPHOMA, Strain/Indicator: L5178Y (TK+/TK-), Metabolic Activation: RAT, LIVER, S-9, AROCLOR 1254, Method: SUSPENSION/PLATE) was “inactive; negative”; the mutagenic call (Test System: MOUSE LYMPHOMA, Strain/Indicator: L5178Y (TK+/TK-), Metabolic Activation: S-9, Method: SUSPENSION/PLATE) was “inactive; negative”.

As to `N#Cc1c(Cl)c(Cl)c(Cl)c(C#N)c1Cl`, the mutagenic call runs as follows: under setting [1], “active; positive”; under setting [2], “active; positive”.
